# Laboratory results from ChEMBL document CHEMBL3774331, “Inhibition of tau aggregation using a naturally-occurring cyclic peptide scaffold” (Eur J Med Chem, 2016).
# Activity calls are given as the source filed them. The calls are words filed in the database; no cut-off is given here. Where a SMILES comes first, the peptide text is derived from it. Bridges are numbered along the chain shown (N, C = ends).
# Tested on: not listed separately
# Assay: Inhibition of TAU derived synthetic hexapeptide AcPHF6 fibril formation incubated for 60 mins by thioflavin T fluorescence assay
row,SMILES,inhibition
1,CC[C@H](C)[C@@H]1NC(=O)[C@H](CCC(N)=O)NC(=O)[C@H](C(C)C)NC(=O)CNC(=O)[C@H]2CCCN2C(=O)[C@H](C(C)C)NC(=O)[C@H](C)N(C)C(=O)[C@H]([C@@H](C)CC)NC(=O)[C@@H]2CSSC[C@H](NC1=O)C(=O)N[C@@H](Cc1ccc(O)cc1)C(=O)N[C@@H](CCCCN)C(=O)N[C@@H](CO)C(=O)N[C@@H]([C@@H](C)CC)C(=O)N1CCC[C@H]1C(=O)N1CCC[C@H]1C(=O)N[C@@H]([C@@H](C)CC)C(=O)N2,Dose-dependent effect

# Tested on: Serum
# Assay: Stability in 100% human serum at 30 uM after 24 hrs
# Type: ADME
row,SMILES,Stability
1,CC[C@H](C)[C@@H]1NC(=O)[C@H](CCC(N)=O)NC(=O)[C@H](C(C)C)NC(=O)CNC(=O)[C@H](CC(=O)O)NC(=O)[C@@H]2CCCN2C(=O)[C@H](C(C)C)NC(=O)[C@H](CCCCN)NC(=O)[C@H]([C@@H](C)CC)NC(=O)[C@@H]2CSSC[C@H](NC1=O)C(=O)N[C@@H](Cc1ccc(O)cc1)C(=O)N[C@@H](CCCCN)C(=O)N[C@@H](CO)C(=O)N[C@@H]([C@@H](C)CC)C(=O)N1CCC[C@H]1C(=O)N1CCC[C@H]1C(=O)NCC(=O)N2 (cyclo(CIKVPDGVQICYKSIPPG); disulfide 1-11),Stable
2,CC[C@H](C)[C@@H]1NC(=O)[C@H](C)NC(=O)CNC(=O)[C@@H]2CCCN2C(=O)[C@@H]2CCCN2C(=O)[C@H]([C@@H](C)CC)NC(=O)[C@H](CO)NC(=O)[C@H](CCCCN)NC(=O)[C@H](Cc2ccc(O)cc2)NC(=O)[C@H](C)NC(=O)[C@H]([C@@H](C)CC)NC(=O)[C@H](CCC(N)=O)NC(=O)[C@H](C(C)C)NC(=O)CNC(=O)[C@H](CC(=O)O)NC(=O)[C@@H]2CCCN2C(=O)[C@H](C(C)C)NC(=O)[C@H](CCCCN)NC1=O (cyclo(AIKVPDGVQIAYKSIPPG)),Stable

# Tested on: not listed separately
# Assay: Binding affinity to thioflavin S at compound:AcPHF6 ratio of 1:1 to 1:64 incubated for 120 mins by fluorescence assay
row,SMILES,Activity
1,CC(C)[C@H](NC(=O)CN)C(=O)N[C@H]1CSSC[C@@H](C(=O)N[C@@H](CCCNC(=N)N)C(=O)N[C@@H](CCCNC(=N)N)C(=O)O)NC(=O)[C@@H](C(C)C)NC(=O)C2CSSCC(NC(=O)[C@H](CCCNC(=N)N)NC1=O)C(=O)N[C@@H](C(C)C)C(=O)N[C@H]1CSSC[C@H](NC(=O)[C@H](C(C)C)NC(=O)CNC(=O)[C@H](CCCNC(=N)N)NC(=O)[C@H](CCCNC(=N)N)NC1=O)C(=O)N[C@@H](CCCNC(=N)N)C(=O)N2,Active

# Tested on: not listed separately
# Assay: Activation of TAU derived synthetic hexapeptide AcPHF6 fibril formation at compound:AcPHF6 ratio of 1:1 to 1:64 incubated for 60 mins by thioflavin S fluorescence assay
row,SMILES,Activity
1,CC(C)[C@H](NC(=O)CN)C(=O)N[C@H]1CSSC[C@@H](C(=O)N[C@@H](CCCNC(=N)N)C(=O)N[C@@H](CCCNC(=N)N)C(=O)O)NC(=O)[C@@H](C(C)C)NC(=O)C2CSSCC(NC(=O)[C@H](CCCNC(=N)N)NC1=O)C(=O)N[C@@H](C(C)C)C(=O)N[C@H]1CSSC[C@H](NC(=O)[C@H](C(C)C)NC(=O)CNC(=O)[C@H](CCCNC(=N)N)NC(=O)[C@H](CCCNC(=N)N)NC1=O)C(=O)N[C@@H](CCCNC(=N)N)C(=O)N2,Active

# Tested on: not listed separately
# Assay: Inhibition of TAU derived synthetic hexapeptide AcPHF6 fibril formation at compound:AcPHF6 ratio of 1:1 to 1:64 incubated for 60 mins by thioflavin S fluorescence assay
row,SMILES,inhibition
1,CC[C@H](C)[C@@H]1NC(=O)[C@@H]2CCCN2C(=O)[C@@H]2CCCN2C(=O)[C@H]([C@@H](C)CC)NC(=O)[C@H](CO)NC(=O)[C@H](Cc2ccccc2)NC(=O)[C@H](CC(N)=O)NC(=O)[C@@H]2CSSC[C@H](NC1=O)C(=O)N[C@@H](CCC(N)=O)C(=O)N[C@@H](CCCCN)C(=O)N[C@@H](CO)C(=O)N1CCC[C@H]1C(=O)N[C@@H](CC(=O)O)C(=O)NCC(=O)N[C@@H](CO)C(=O)N[C@@H](CC(N)=O)C(=O)N[C@@H](CCC(N)=O)C(=O)N2 (cyclo(CNFSIPPICQKSPDGSNQ); disulfide 1-9),Active
2,CC[C@H](C)[C@@H]1NC(=O)[C@H](CCC(N)=O)NC(=O)[C@H](C(C)C)NC(=O)CNC(=O)[C@H]2CCCN2C(=O)[C@H](C(C)C)NC(=O)[C@H](CCCCN)NC(=O)[C@H]([C@@H](C)CC)NC(=O)[C@@H]2CSSC[C@H](NC1=O)C(=O)N[C@@H](Cc1ccc(O)cc1)C(=O)N[C@@H](CCCCN)C(=O)N[C@@H](CO)C(=O)N[C@@H]([C@@H](C)CC)C(=O)N1CCC[C@H]1C(=O)N1CCC[C@H]1C(=O)NCC(=O)N2,Active
3,CC[C@@H](C)[C@@H]1NC(=O)[C@@H]2CSSC[C@H](NC(=O)[C@@H]([C@H](C)CC)NC(=O)CNC(=O)[C@H]3CCCN3C1=O)C(=O)N[C@H](Cc1ccc(O)cc1)C(=O)N[C@H](CCCCN)C(=O)N[C@H](CO)C(=O)N[C@H]([C@H](C)CC)C(=O)N1CCC[C@H]1C(=O)N1CCC[C@H]1C(=O)NCC(=O)N2,Active
4,CC[C@H](C)[C@@H]1NC(=O)[C@H](CCC(=O)O)NC(=O)[C@@H]2CCCN2C(=O)[C@H](Cc2cnc[nH]2)NC(=O)[C@H](CC(=O)O)NC(=O)[C@H](Cc2ccc(O)cc2)NC(=O)[C@H](CC(N)=O)NC(=O)[C@H]2CSSC[C@H](NC(=O)CN)C(=O)N[C@@H](CSSC[C@@H](C(=O)NCC(=O)NCC(=O)N[C@@H](C)C(=O)NCC(=O)NCC(=O)O)NC1=O)C(=O)N[C@H](CO)C(=O)N[C@@H](CC(=O)O)C(=O)N1CCC[C@H]1C(=O)N[C@H](CCCNC(=N)N)C(=O)N2,inactive
5,CC[C@H](C)[C@@H]1NC(=O)[C@H](CCC(N)=O)NC(=O)[C@H](C(C)C)NC(=O)CNC(=O)[C@H](CC(=O)O)NC(=O)[C@@H]2CCCN2C(=O)[C@H](C(C)C)NC(=O)[C@H](CCCCN)NC(=O)[C@H]([C@@H](C)CC)NC(=O)[C@@H]2CSSC[C@H](NC1=O)C(=O)N[C@@H](Cc1ccc(O)cc1)C(=O)N[C@@H](CCCCN)C(=O)N[C@@H](CO)C(=O)N[C@@H]([C@@H](C)CC)C(=O)N1CCC[C@H]1C(=O)N1CCC[C@H]1C(=O)N[C@@H]([C@@H](C)CC)C(=O)N2 (cyclo(CIKVPDGVQICYKSIPPI); disulfide 1-11),Active
6,CC[C@H](C)[C@@H]1NC(=O)[C@H](CCC(N)=O)NC(=O)[C@H](C(C)C)NC(=O)CNC(=O)[C@H]2CCCN2C(=O)[C@H](C(C)C)NC(=O)[C@H](C)N(C)C(=O)[C@H]([C@@H](C)CC)NC(=O)[C@H](C)NC(=O)[C@H]([C@@H](C)CC)NC(=O)[C@@H]2CCCN2C(=O)[C@@H]2CCCN2C(=O)[C@H]([C@@H](C)CC)NC(=O)[C@H](CO)NC(=O)[C@H](CCCCN)NC(=O)[C@H](Cc2ccc(O)cc2)NC(=O)[C@H](C(C)C)NC1=O,Active
7,CC[C@H](C)[C@@H]1NC(=O)[C@H](CCC(N)=O)NC(=O)[C@H](C(C)C)NC(=O)CNC(=O)[C@H](CC(=O)O)NC(=O)[C@@H]2CCCN2C(=O)[C@H](C(C)C)NC(=O)[C@H](CCCCN)NC(=O)[C@H]([C@@H](C)CC)NC(=O)[C@@H]2CSSC[C@H](NC1=O)C(=O)N[C@@H](Cc1ccc(O)cc1)C(=O)N[C@@H](CCCCN)C(=O)N[C@@H](CO)C(=O)N[C@@H]([C@@H](C)CC)C(=O)N1CCC[C@H]1C(=O)N1CCC[C@H]1C(=O)NCC(=O)N2 (cyclo(CIKVPDGVQICYKSIPPG); disulfide 1-11),Active
8,CC[C@H](C)[C@@H]1NC(=O)[C@H](CCC(N)=O)NC(=O)[C@H](C(C)C)NC(=O)CNC(=O)[C@H]2CCCN2C(=O)[C@H](C(C)C)NC(=O)[C@H](C)NC(=O)[C@H](Cc2ccccc2)NC(=O)[C@@H]2CSSC[C@H](NC1=O)C(=O)N[C@@H](Cc1ccc(O)cc1)C(=O)N[C@@H](CCCCN)C(=O)N[C@@H](CO)C(=O)N[C@@H]([C@@H](C)CC)C(=O)N1CCC[C@H]1C(=O)N1CCC[C@H]1C(=O)N[C@@H]([C@@H](C)CC)C(=O)N2,Active
9,CC[C@H](C)[C@@H]1NC(=O)[C@@H]2CSSC[C@H](NC(=O)[C@H]([C@@H](C)CC)NC(=O)[C@H](CCC(N)=O)NC(=O)[C@@H]3CCCN3C(=O)[C@@H]3CCCN3C(=O)[C@H](C)NC1=O)C(=O)N[C@@H](Cc1ccc(O)cc1)C(=O)N[C@@H](CCCCN)C(=O)N[C@@H](CO)C(=O)N[C@@H]([C@@H](C)CC)C(=O)N1CCC[C@H]1C(=O)N1CCC[C@H]1C(=O)NCC(=O)N2 (cyclo(APPQICYKSIPPGCI); disulfide 6-14),Active
10,CC[C@H](C)[C@@H]1NC(=O)[C@H](C)NC(=O)CNC(=O)[C@@H]2CCCN2C(=O)[C@@H]2CCCN2C(=O)[C@H]([C@@H](C)CC)NC(=O)[C@H](CO)NC(=O)[C@H](CCCCN)NC(=O)[C@H](Cc2ccc(O)cc2)NC(=O)[C@H](C)NC(=O)[C@H]([C@@H](C)CC)NC(=O)[C@H](CCC(N)=O)NC(=O)[C@H](C(C)C)NC(=O)CNC(=O)[C@H](CC(=O)O)NC(=O)[C@@H]2CCCN2C(=O)[C@H](C(C)C)NC(=O)[C@H](CCCCN)NC1=O (cyclo(AIKVPDGVQIAYKSIPPG)),Active
11,CC[C@@H](C)[C@H]1NC(=O)[C@@H]2CCCN2C(=O)[C@@H]2CCCN2C(=O)[C@H]([C@@H](C)CC)NC(=O)[C@H](CO)NC(=O)[C@H](CC(N)=O)NC(=O)[C@H](CCC(=O)O)NC(=O)[C@@H]2CSSC[C@H](NC1=O)C(=O)N[C@@H](CCC(N)=O)C(=O)N[C@H](CCCCN)C(=O)N[C@H](CC(C)C)C(=O)N1CCC[C@H]1C(=O)N[C@H](CC(=O)O)C(=O)NCC(=O)N[C@H](CC(C)C)C(=O)N[C@@H](Cc1ccc(O)cc1)C(=O)N[C@H](CCC(N)=O)C(=O)N2,Active
12,CC[C@H](C)[C@@H]1NC(=O)[C@H](CCC(N)=O)NC(=O)[C@H](C(C)C)NC(=O)CNC(=O)[C@H]2CCCN2C(=O)[C@H](C(C)C)NC(=O)[C@H](CCC(N)=O)NC(=O)[C@H]([C@@H](C)CC)NC(=O)[C@@H]2CSSC[C@H](NC1=O)C(=O)N[C@@H](Cc1ccc(O)cc1)C(=O)N[C@@H](CCCCN)C(=O)N[C@@H](CO)C(=O)N[C@@H]([C@@H](C)CC)C(=O)N1CCC[C@H]1C(=O)N1CCC[C@H]1C(=O)N[C@@H]([C@@H](C)CC)C(=O)N2,Active
13,CC[C@H](C)[C@@H]1NC(=O)[C@@H]2CSSC[C@H](NC(=O)[C@H]([C@@H](C)CC)NC(=O)[C@H](CCC(N)=O)NC(=O)[C@H](C(C)C)NC(=O)CNC(=O)[C@H]3CCCN3C(=O)[C@H](C(C)C)NC(=O)[C@H](C)NC1=O)C(=O)N[C@@H](Cc1ccc(O)cc1)C(=O)N[C@@H](CCCCN)C(=O)N[C@@H](CO)C(=O)N[C@@H]([C@@H](C)CC)C(=O)N1CCC[C@H]1C(=O)N1CCC[C@H]1C(=O)N[C@@H]([C@@H](C)CC)C(=O)N2,Active
14,CC[C@H](C)[C@@H]1NC(=O)[C@@H]2CCCN2C(=O)[C@@H]2CCCN2C(=O)[C@H]([C@@H](C)CC)NC(=O)[C@H](CO)NC(=O)[C@H](C)NC(=O)[C@H]([C@@H](C)O)NC(=O)[C@@H]2CSSC[C@H](NC1=O)C(=O)N[C@@H](Cc1ccccc1)C(=O)N1CCC[C@H]1C(=O)N[C@@H](CC(=O)O)C(=O)NCC(=O)N[C@@H](CCCNC(=N)N)C(=O)N2 (cyclo(ASIPPICFPDGRCT); disulfide 7-13),Active
15,CC[C@H](C)[C@@H]1NC(=O)[C@@H]2CCCN2C(=O)[C@@H]2CCCN2C(=O)[C@H]([C@@H](C)CC)NC(=O)[C@H](CO)NC(=O)[C@H](CCCCN)NC(=O)[C@H]([C@@H](C)O)NC(=O)[C@H](C)NC(=O)[C@H](CCCNC(=N)N)NC(=O)CNC(=O)[C@H](CC(=O)O)NC(=O)[C@@H]2CCCN2C(=O)[C@H](Cc2ccccc2)NC(=O)[C@H](C)NC1=O (cyclo(AFPDGRATKSIPPI)),Active
16,CC(C)C[C@H](NC(=O)CN)C(=O)N1CCC[C@H]1C(=O)N[C@H](C(=O)N[C@@H]1CSSC[C@H]2NC(=O)CNC(=O)[C@@H]3CCCN3C(=O)[C@H]([C@@H](C)O)NC(=O)[C@@H](CC(N)=O)NC(=O)[C@H]3CSSC[C@H](C(=O)N[C@@H](C(=O)N[C@H](CCCNC(=N)N)C(=O)N[C@@H](CC(N)=O)C(=O)O)[C@@H](C)O)NC(=O)[C@H](C(C)C)NC(=O)[C@H]4CCCN4C(=O)[C@@H](Cc4c[nH]c5ccccc45)NC(=O)[C@H](CO)NC(=O)[C@@H](CSSC[C@@H](NC(=O)[C@@H]([C@@H](C)O)NC(=O)[C@@H](CCC(=O)O)NC(=O)CNC1=O)C(=O)N[C@@H](C(C)C)C(=O)NCC(=O)NCC(=O)N[C@@H]([C@@H](C)O)C(=O)N3)NC(=O)[C@@H]([C@H](C)O)NC2=O)C(C)C,Active
